Measurements published in US9493446B2, “Orexin receptor antagonists which are [ortho bi-(hetero-)aryl]-[2-(meta bi-(hetero-)aryl)-pyrrolidin-1-yl]-methanone derivatives” (Actelion Pharmaceuticals Ltd, priority 2012, dated 2016).

Assays:
orexin-1 = orexin-1 (Homo sapiens (Human), UniProt O43613); test: Intracellular calcium measurement (FLIPR), CHO cells expressing human orexin-1 receptor, 3 nM orexin-A; assay type: cell-based; details: CHO cells expressing human orexin-1 receptor, FLIPR, 3 nM orexin-A; geometric mean if determined several times; read-out: IC50 OX1
Chain of orexin-1 (O43613 whole entry): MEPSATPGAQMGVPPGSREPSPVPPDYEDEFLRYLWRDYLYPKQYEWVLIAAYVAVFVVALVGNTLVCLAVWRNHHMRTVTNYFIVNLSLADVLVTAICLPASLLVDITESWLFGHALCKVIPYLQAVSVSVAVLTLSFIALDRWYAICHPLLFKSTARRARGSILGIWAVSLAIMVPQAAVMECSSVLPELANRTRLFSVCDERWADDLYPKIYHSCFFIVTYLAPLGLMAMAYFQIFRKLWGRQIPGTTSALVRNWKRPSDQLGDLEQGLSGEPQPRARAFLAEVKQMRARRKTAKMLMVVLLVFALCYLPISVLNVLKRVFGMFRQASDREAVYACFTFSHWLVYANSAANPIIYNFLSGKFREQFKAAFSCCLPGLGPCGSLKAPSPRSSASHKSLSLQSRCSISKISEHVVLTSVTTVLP
Experimental: (§1) In Vitro Assay: Intracellular Calcium Measurements:
(§2) Chinese hamster ovary (CHO) cells expressing the human orexin-1 receptor and the human orexin-2 receptor, respectively, are grown in culture medium (Ham F-12 with L-Glutamine) containing 300 μg/mL G418, 100 U/mL penicillin, 100 μg/mL streptomycin and 10% heat inactivated fetal calf serum (FCS). The cells are seeded at 20,000 cells/well into 384-well black clear bottom sterile plates (Greiner). The seeded plates are incubated overnight at 37° C. in 5% CO2.
(§3) Human orexin-A as an agonist is prepared as 1 mM stock solution in MeOH: water (1:1), diluted in HBSS containing 0.1% bovine serum albumin (BSA), NaHCO3: 0.375 g/L and 20 mM HEPES for use in the assay at a final concentration of 3 nM.
(§4) Antagonists are prepared as 10 mM stock solution in DMSO, then diluted in 384-well plates using DMSO followed by a transfer of the dilutions into in HBSS containing 0.1% bovine serum albumin (BSA), NaHCO3: 0.375 g/L and 20 mM HEPES. On the day of the assay, 50 μL of staining buffer (HBSS containing 1% FCS, 20 mM HEPES, NaHCO3: 0.375 g/L, 5 mM probenecid (Sigma) and 3 μM of the fluorescent calcium indicator fluo-4 AM (1 mM stock solution in DMSO, containing 10% pluronic) is added to each well. The 384-well cell-plates are incubated for 50 min at 37° C. in 5% CO2 followed by equilibration at rt for 30 min before measurement.
(§5) Within the Fluorescent Imaging Plate Reader (FLIPR Tetra, Molecular Devices), antagonists are added to the plate in a volume of 10 μL/well, incubated for 120 min and finally 10 μL/well of agonist is added. Fluorescence is measured for each well at 1 second intervals, and the height of each fluorescence peak is compared to the height of the fluorescence peak induced by 3 nM orexin-A with vehicle in place of antagonist. […] Optimized conditions were achieved by adjustment of pipetting speed and cell splitting regime. The calculated IC50 values may fluctuate depending on the daily cellular assay performance. Fluctuations of this kind are known to those skilled in the art.

human orexin-2 receptor = human orexin-2 receptor (Homo sapiens (Human), UniProt O43614); test: Intracellular calcium measurement (FLIPR), CHO cells expressing human orexin-2 receptor, 3 nM orexin-A; assay type: cell-based; details: CHO cells expressing human orexin-2 receptor, FLIPR, 3 nM orexin-A; geometric mean if determined several times; read-out: IC50 OX2
Chain of human orexin-2 receptor (O43614 whole entry): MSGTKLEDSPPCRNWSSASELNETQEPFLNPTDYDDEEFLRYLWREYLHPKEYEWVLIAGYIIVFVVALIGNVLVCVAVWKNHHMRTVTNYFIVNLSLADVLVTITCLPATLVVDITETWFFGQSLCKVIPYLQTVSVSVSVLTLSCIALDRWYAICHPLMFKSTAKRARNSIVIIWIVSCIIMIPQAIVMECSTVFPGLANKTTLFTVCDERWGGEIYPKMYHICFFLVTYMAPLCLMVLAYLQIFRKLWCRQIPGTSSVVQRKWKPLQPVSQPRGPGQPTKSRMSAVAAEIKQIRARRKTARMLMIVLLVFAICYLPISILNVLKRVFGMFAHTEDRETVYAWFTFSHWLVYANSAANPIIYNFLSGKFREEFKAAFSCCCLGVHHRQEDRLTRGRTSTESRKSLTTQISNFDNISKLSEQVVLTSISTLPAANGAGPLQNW
Experimental: as §1, §2, §3, §4, §5

Molecule	IC50 (orexin-1) [nM]	IC50 (human orexin-2 receptor) [nM]
Cc1ccc(-n2nccn2)c(C(=O)N2CCC[C@H]2c2nc(-c3ccccc3)no2)c1 [Example 1, (5-Methyl-2-[1,2,3]triazol-2-yl-phenyl)-[(S)-2-(3-phenyl-[1,2,4]oxadiazol-5-yl)-pyrrolidin-1-yl]-methanone]	373	40
CC(=O)n1cc(-c2noc([C@@H]3CCCN3C(=O)c3cc(C)ccc3-n3nccn3)n2)c2ccccc21 [Example 85, 1-(3-{5-[(S)-1-(5-Methyl-2-[1,2,3]triazol-2-yl-benzoyl)-pyrrolidin-2-yl]-[1,2,4]oxadiazol-3-yl}-indol-1-yl)-ethanone]	28	23
Cc1ccc(-n2nccn2)c(C(=O)N2CCC[C@H]2c2nc(-c3cccnc3OC(F)F)no2)c1 [Example 86, {(S)-2-[3-(2-Difluoromethoxy-pyridin-3-yl)-[1,2,4]oxadiazol-5-yl]-pyrrolidin-1-yl}-(5-methyl-2-[1,2,3]triazol-2-yl-phenyl)-methanone]	103	40
Cc1ccc(-n2nccn2)c(C(=O)N2CCC[C@H]2c2nc(-c3ccccc3CCO)no2)c1 [Example 87, ((S)-2-{3-[2-(2-Hydroxy-ethyl)-phenyl]-[1,2,4]oxadiazol-5-yl}-pyrrolidin-1-yl)-(5-methyl-2-[1,2,3]triazol-2-yl-phenyl)-methanone]	439	70
Cc1ccc(-n2nccn2)c(C(=O)N2CCC[C@H]2c2noc(-c3ccccc3)n2)c1 [Example 302, (5-Methyl-2-[1,2,3]triazol-2-yl-phenyl)-[(S)-2-(5-phenyl-[1,2,4]oxadiazol-3-yl)-pyrrolidin-1-yl]-methanone]	258	207
Cc1ccc(-n2nccn2)c(C(=O)N2CCC[C@H]2c2noc(-c3ccccc3OC(F)(F)F)n2)c1 [Example 303, (5-Methyl-2-[1,2,3]triazol-2-yl-phenyl)-{(S)-2-[5-(2-trifluoromethoxy-phenyl)-[1,2,4]oxadiazol-3-yl]-pyrrolidin-1-yl}-methanone]	13	4
Cc1ccc(-n2nccn2)c(C(=O)N2CCC[C@H]2c2noc(-c3cccc(Cl)c3C)n2)c1 [Example 318, {(S)-2-[5-(3-Chloro-2-methyl-phenyl)-[1,2,4]oxadiazol-3-yl]-pyrrolidin-1-yl}-(5-methyl-2-[1,2,3]triazol-2-yl-phenyl)-methanone]	42	7
Cc1ccc(-n2nccn2)c(C(=O)N2CCC[C@H]2c2cc(-c3ccccc3)no2)c1 [Example 420, (5-Methyl-2-[1,2,3]triazol-2-yl-phenyl)-[(S)-2-(3-phenyl-isoxazol-5-yl)-pyrrolidin-1-yl]-methanone]	1060	133
Cc1cccc(-c2nnc([C@@H]3CCCN3C(=O)c3cc(C)ccc3-n3nccn3)o2)c1 [Example 438, (5-Methyl-2-[1,2,3]triazol-2-yl-phenyl)-[(S)-2-(5-m-tolyl-[1,3,4]oxadiazol-2-yl)-pyrrolidin-1-yl]-methanone]	1490	359
COc1c(F)cccc1-c1nnc([C@@H]2CCCN2C(=O)c2cc(C)ccc2-n2nccn2)o1 [Example 448, {(S)-2-[5-(3-Fluoro-2-methoxy-phenyl)-[1,3,4]oxadiazol-2-yl]-pyrrolidin-1-yl}-(5-methyl-2-[1,2,3]triazol-2-yl-phenyl)-methanone]	762	236
CCOc1c(F)cccc1-c1nnc([C@@H]2CCCN2C(=O)c2cc(C)ccc2-n2nccn2)o1 [Example 449, {(S)-2-[5-(2-Ethoxy-3-fluoro-phenyl)-[1,3,4]oxadiazol-2-yl]-pyrrolidin-1-yl}-(5-methyl-2-[1,2,3]triazol-2-yl-phenyl)-methanone]	280	236
CCOc1ncccc1-c1nnc([C@@H]2CCCN2C(=O)c2cc(C)ccc2-n2nccn2)o1 [Example 450, {(S)-2-[5-(2-Ethoxy-pyridin-3-yl)-[1,3,4]oxadiazol-2-yl]-pyrrolidin-1-yl}-(5-methyl-2-[1,2,3]triazol-2-yl-phenyl)-methanone]	182	95
Cc1cc(C)cc(-c2nnc([C@@H]3CCCN3C(=O)c3cc(C)ccc3-n3nccn3)o2)c1 [Example 451, {(S)-2-[5-(3,5-Dimethyl-phenyl)-[1,3,4]oxadiazol-2-yl]-pyrrolidin-1-yl}-(5-methyl-2-[1,2,3]triazol-2-yl-phenyl)-methanone]	535	326
CCc1ccccc1-c1nnc([C@@H]2CCCN2C(=O)c2cc(C)ccc2-n2nccn2)o1 [Example 452, {(S)-2-[5-(2-Ethyl-phenyl)-[1,3,4]oxadiazol-2-yl]-pyrrolidin-1-yl}-(5-methyl-2-[1,2,3]triazol-2-yl-phenyl)-methanone]	249	211
Cc1ccc(-n2nccn2)c(C(=O)N2CCC[C@H]2c2nnc(-c3cccc(F)c3C)o2)c1 [Example 453, {(S)-2-[5-(3-Fluoro-2-methyl-phenyl)-[1,3,4]oxadiazol-2-yl]-pyrrolidin-1-yl}-(5-methyl-2-[1,2,3]triazol-2-yl-phenyl)-methanone]	398	80
CCOc1ccccc1-c1nnc([C@@H]2CCCN2C(=O)c2cc(C)ccc2-n2nccn2)o1 [Example 454, {(S)-2-[5-(2-Ethoxy-phenyl)-[1,3,4]oxadiazol-2-yl]-pyrrolidin-1-yl}-(5-methyl-2-[1,2,3]triazol-2-yl-phenyl)-methanone]	1140	375
Cc1ccc(-n2nccn2)c(C(=O)N2CCC[C@H]2c2nnc(-c3cccc(Cl)c3)o2)c1 [Example 455, {(S)-2-[5-(3-Chloro-phenyl)-[1,3,4]oxadiazol-2-yl]-pyrrolidin-1-yl}-(5-methyl-2-[1,2,3]triazol-2-yl-phenyl)-methanone]	835	1690
COc1cccc(-c2nnc([C@@H]3CCCN3C(=O)c3cc(C)ccc3-n3nccn3)o2)c1 [Example 456, {(S)-2-[5-(3-Methoxy-phenyl)-[1,3,4]oxadiazol-2-yl]-pyrrolidin-1-yl}-(5-methyl-2-[1,2,3]triazol-2-yl-phenyl)-methanone]	1740	536
COc1ccc(-c2nnc([C@@H]3CCCN3C(=O)c3cc(C)ccc3-n3nccn3)o2)cc1 [Example 457, {(S)-2-[5-(4-Methoxy-phenyl)-[1,3,4]oxadiazol-2-yl]-pyrrolidin-1-yl}-(5-methyl-2-[1,2,3]triazol-2-yl-phenyl)-methanone]	17000	3440
Cc1ccc(-n2nccn2)c(C(=O)N2CCC[C@H]2c2nnc(-c3ccccc3OC(F)(F)F)s2)c1 [Example 458, (5-Methyl-2-[1,2,3]triazol-2-yl-phenyl)-{(S)-2-[5-(2-trifluoromethoxy-phenyl)-[1,3,4]thiadiazol-2-yl]-pyrrolidin-1-yl}-methanone]	176	112
Cc1ccc(-n2nccn2)c(C(=O)N2CCC[C@H]2c2nc(-c3ccccc3)co2)c1 [Example 459, (5-Methyl-2-[1,2,3]triazol-2-yl-phenyl)-[(S)-2-(4-phenyl-oxazol-2-yl)-pyrrolidin-1-yl]-methanone]	129	295
CCOc1c(F)cccc1-c1nc([C@@H]2CCCN2C(=O)c2cc(C)c(C)cc2-n2nccn2)no1 [compound 324, (4,5-Dimethyl-2-[1,2,3]triazol-2-yl-phenyl)-{(S)-2-[5-(2-ethoxy-3-fluoro-phenyl)-[1,2,4]oxadiazol-3-yl]-pyrrolidin-1-yl}-methanone]		1
COc1c(F)cccc1-c1nc([C@@H]2CCCN2C(=O)c2cc(C)c(C)cc2-n2nccn2)no1 [compound 340, (4,5-Dimethyl-2-[1,2,3]triazol-2-yl-phenyl)-{(S)-2-[5-(3-fluoro-2-methoxy-phenyl)-[1,2,4]oxadiazol-3-yl]-pyrrolidin-1-yl}-methanone]		0.4
CCOc1ncccc1-c1nc([C@@H]2CCCN2C(=O)c2cc(Cl)c(C)cc2-n2nccn2)no1 [compound 380]		1
Cc1ccc(C(=O)N2CCC[C@H]2c2cnc(-c3ccccc3)[nH]2)c(-n2nccn2)c1 [compound 520, (4-Methyl-2-[1,2,3]triazol-2-yl-phenyl)-[(S)-2-(2-phenyl-3H-imidazol-4-yl)-pyrrolidin-1-yl]-methanone]	650	
{(S)-2-[3-(3-Chloro-2-methyl-phenyl)-[1,2,4]oxadiazol-5-yl]-pyrrolidin-1-yl}-[3-(2-chloro-phenyl)-5-methyl-isoxazol-4-yl]-methanone [Reference compound 7, reference compound]		37
